Numbered stars: 1 amine (or outer) side, 2 acyl side, 3 side chain; on linkers, the order of the positions; unused ones are H or OH. Bridge positions count the residues as written; N and C are the ends. Square brackets hold non-standard residues; d marks the D form. Peptide text beside a SMILES is read from it. ξ: configuration not given here. ξαMeNle(6-ylidene) = CC(CCCC=[*:3])(N[*:1])C(=O)[*:2]; Nle = CCCC[C@H](N)C(=O)O
Tests used:
[1] = tested on: β-catenin/BCL9-driven transcription in HCT116 cells; experiment: TOP-FLASH dual luciferase assay with pcDNA-BCL9 transfection; type: cell-based; conditions: HCT116, TOP-FLASH and pcDNA-BCL9, peptides 5 μM, 24 h
[2] = tested on: colorectal primary tumors (CCPT); experiment: Cell proliferation, [3H]thymidine uptake; type: cell-based, human; conditions: primary CRC cells; 5 μM, 24 h
Excerpt: (§1) Bone marrow specimens were obtained from patients with MM in accordance with Dana-Farber Cancer Institute Review Board approval and informed consent performed in compliance with the Declaration of Helsinki. Primary CD138+ plasma cells were purified using magnetic beads as described (Sukhdeo, K. et al. Proc Natl Acad Sci USA 104, 7516-21 (2007)). CRC primary tumor samples were obtained from the Brigham and Women's Hospital in accordance with the policies of their Institutional Review Board. To generate sufficient CRC primary tumor cells for experimentation, the primary tumors were first expanded subcutaneously in NOD/SCID mice (Jackson Laboratory). After the tumors reached 2 cm in diameter, mice were sacrificed according to institutional guidelines and subcutaneous tumor xenografts were minced with a scalpel and digested by incubation with collagenase IV (Worthington Biomedical Corporation) and 0.01% DNase I (Sigma-Aldrich) at 37° C. for 30 min, followed by additional mechanical disaggregation using a Stomacher device (Seward Laboratory Systems Inc.). […]
(§2) Cell proliferation assays were performed as described (Sukhdeo, K. et al. Proc Natl Acad Sci USA 104, 7516-21 (2007)). Cell viability was measured using the CellTiter-Glo assay (Promega) according to the manufacturer's instructions. Apoptosis was evaluated by activated caspase-3 and PARP western blotting. […]

[3] = tested on: multiple myeloma primary tumors (MMPT); experiment: Cell proliferation, [3H]thymidine uptake; type: cell-based, human; conditions: primary MM cells; 5 μM
Excerpt: as §1, §2

MM1S cells = experiment: Combination with doxorubicin, 3H-thymidine incorporation; type: cell-based; conditions: increasing concentrations of Dox
Method: To test whether the anti-proliferative effect of SAH-BCL9B could synergize with other agents commonly used to treat MM or CRC, combination treatment studies were conducted. Indeed, the cytotoxic effects of 5-fluorouracil on CRC cells and of doxorubicin on MM cells were enhanced by SAH-BCL9B, but not by vehicle or the mutant peptide. See results in FIG. 21.

CCCC[C@H](NC(=O)[C@H](CCCNC(=N)N)NC(=O)[C@H](CCC(N)=O)NC(=O)[C@@H](NC(=O)C1(C)CCCC=CCCCC(C)(NC(=O)[C@H](CC(C)C)NC(=O)[C@H](CO)NC(=O)[C@H](CCCNC(=N)N)NC(=O)[C@H](CCC(=O)O)NC(=O)[C@H](CCCNC(=N)N)NC(=O)[C@H](Cc2c[nH]cn2)NC(=O)[C@H](CCC(=O)O)NC(=O)[C@H](CC(C)C)NC(=O)[C@H](CCC(N)=O)NC(=O)[C@H](CCC(=O)O)NC(=O)[C@H](CCC(N)=O)NC(=O)[C@H](CO)NC(=O)[C@H](CC(C)C)NC(C)=O)C(=O)N[C@@H]([C@@H](C)O)C(=O)N[C@@H](CC(C)C)C(=O)N[C@@H](CCCNC(=N)N)C(=O)N1)[C@@H](C)CC)C(=O)N[C@@H](CC(C)C)C(=O)N[C@@H](Cc1ccccc1)C(N)=O (stereo partly shown) [SAH-BCL9B] (Ac-LSQEQLEHRERSL[ξαMeNle(6-ylidene)]TLR[ξαMeNle(6-ylidene)]IQR[Nle]LF-NH2; staple 14-18)
suppression of reporter activity on increasing BCL9 expression [1]: dose-responsively reversed
proliferation [2]: reduced the proliferation
proliferation [3]: reduced the proliferation
enhancement of anti-tumor activity of doxorubicin (MM1S cells): significantly enhanced the anti-tumor activity

Reference: patent US12534501B2, “Targeting deregulated Wnt signaling in cancer using stabilized alpha-helices of BCL-9” (Dana-Farber Cancer Institute, Inc., priority 2011, dated 2026)
